The values that follow are results of earlier work, collected in patent publication US20250228953A1, “INTRACELLULAR TARGETING OF OLIGONUCLEOTIDES” (Entrada Therapeutics, Inc., priority 2021, published 2025).

For data set [1] the following is noted: amino acid hydrophobicity scale; cited from earlier work.
The conditions of data set [2]: as reported by Tien, cited from earlier work; for SASA, Empirical / SASA, Theoretical: et al.

For `N[C@@H](Cc1c[nH]c2ccccc12)C(=O)O` [Trp, Tryptophan], in data set [1], the “Hydrophobicity, Eisenberg and Weiss” value is reported as 0.37; the “Hydrophobicity, Engleman et al.” value is 1.9; the “Hydrophobicity, Janin” value is 0.3; the “Hydrophobicity, Kyrie and Doolittle” value is given as −0.9. Moreover, in data set [2], the “SASA, Empirical” value was 264.0 Å^2; the “SASA, Theoretical” value was 285.0 Å^2; the “SASA, Miller et al. (1987)” value was 259.0 Å^2; the “SASA, Rose et al. (1985)” value is 266.3 Å^2.

For `N=C(N)NCCC[C@H](N)C(=O)O` [Arginine, arginine], in data set [2], the “SASA, Empirical” value is given as 265.0 Å^2; the “SASA, Theoretical” value is 274.0 Å^2; the “SASA, Miller et al. (1987)” value was 241.0 Å^2; the “SASA, Rose et al. (1985)” value is listed as 256.0 Å^2.

On to `N[C@@H](CS)C(=O)O` [Cys, Cysteine], for which, in data set [1], the “Hydrophobicity, Eisenberg and Weiss” value is on record as 0.04; the “Hydrophobicity, Engleman et al.” value is 2.0; the “Hydrophobicity, Janin” value is 0.9; the “Hydrophobicity, Kyrie and Doolittle” value is given as 2.5. In data set [2], the “SASA, Empirical” value is on record as 148.0 Å^2; the “SASA, Theoretical” value was 167.0 Å^2; the “SASA, Miller et al. (1987)” value was 140.0 Å^2; the “SASA, Rose et al. (1985)” value is reported as 146.1 Å^2.

As for `O=C(O)[C@@H]1CCCN1` [Pro, Proline], in data set [2], the “SASA, Empirical” value is on record as 154.0 Å^2; the “SASA, Miller et al. (1987)” value was 143.0 Å^2; the “SASA, Rose et al. (1985)” value is 146.8 Å^2.

Turning to `N[C@@H](Cc1c[nH]cn1)C(=O)O` [His, Histidine], in data set [1], the “Hydrophobicity, Eisenberg and Weiss” value is −0.40; the “Hydrophobicity, Engleman et al.” value is listed as −3.0; the “Hydrophobicity, Janin” value is listed as −0.1; the “Hydrophobicity, Kyrie and Doolittle” value is −3.2. Also, in data set [2], the “SASA, Empirical” value was 216.0 Å^2; the “SASA, Theoretical” value is 224.0 Å^2; the “SASA, Miller et al. (1987)” value was 194.0 Å^2; the “SASA, Rose et al. (1985)” value is reported as 202.5 Å^2.

Take `N[C@@H](Cc1ccc(O)cc1)C(=O)O` [Tyr, Tyrosine]: in data set [1], the “Hydrophobicity, Eisenberg and Weiss” value is 0.02; the “Hydrophobicity, Engleman et al.” value is on record as −0.7; the “Hydrophobicity, Janin” value is given as −0.4; the “Hydrophobicity, Kyrie and Doolittle” value was −1.3. Further, in data set [2], the “SASA, Empirical” value is 255.0 Å^2; the “SASA, Theoretical” value is 263.0 Å^2; the “SASA, Miller et al. (1987)” value is on record as 229.0 Å^2; the “SASA, Rose et al. (1985)” value is 236.8 Å^2.

For `N[C@@H](CCC(=O)O)C(=O)O` [Glu, Glutamic acid], in data set [1], the “Hydrophobicity, Eisenberg and Weiss” value was −0.62; the “Hydrophobicity, Engleman et al.” value is on record as −8.2; the “Hydrophobicity, Janin” value is reported as −0.7; the “Hydrophobicity, Kyrie and Doolittle” value is −3.5. In data set [2], the “SASA, Empirical” value is recorded as 214.0 Å^2; the “SASA, Miller et al. (1987)” value is on record as 183.0 Å^2; the “SASA, Rose et al. (1985)” value was 186.2 Å^2.

Regarding `CC[C@H](C)[C@H](N)C(=O)O` [Ile, Isoleucine], in data set [1], the “Hydrophobicity, Eisenberg and Weiss” value was 0.73; the “Hydrophobicity, Engleman et al.” value is 3.1; the “Hydrophobicity, Janin” value is recorded as 0.7; the “Hydrophobicity, Kyrie and Doolittle” value is 4.5. In data set [2], the “SASA, Empirical” value is given as 195.0 Å^2; the “SASA, Theoretical” value is given as 197.0 Å^2; the “SASA, Miller et al. (1987)” value is on record as 182.0 Å^2; the “SASA, Rose et al. (1985)” value is 181.0 Å^2.

For the compound `C[C@H](N)C(=O)O` [Ala, Alanine], in data set [1], the “Hydrophobicity, Eisenberg and Weiss” value is recorded as 0.25; the “Hydrophobicity, Engleman et al.” value was 1.6; the “Hydrophobicity, Janin” value is 0.3; the “Hydrophobicity, Kyrie and Doolittle” value is given as 1.8. For the same compound, in data set [2], the “SASA, Empirical” value is 121.0 Å^2; the “SASA, Theoretical” value was 129.0 Å^2; the “SASA, Miller et al. (1987)” value is recorded as 113.0 Å^2; the “SASA, Rose et al. (1985)” value was 118.1 Å^2.

Turning to `NCCCC[C@H](N)C(=O)O` [Lys, Lysine], in data set [1], the “Hydrophobicity, Eisenberg and Weiss” value is given as −1.10; the “Hydrophobicity, Engleman et al.” value is on record as −8.8; the “Hydrophobicity, Janin” value is on record as −1.8; the “Hydrophobicity, Kyrie and Doolittle” value is given as −3.9. Further, in data set [2], the “SASA, Empirical” value is 230.0 Å^2; the “SASA, Theoretical” value is 236.0 Å^2; the “SASA, Miller et al. (1987)” value is given as 211.0 Å^2; the “SASA, Rose et al. (1985)” value is on record as 225.8 Å^2.

On to `N[C@@H](CO)C(=O)O` [Ser, Serine], for which, in data set [1], the “Hydrophobicity, Eisenberg and Weiss” value is on record as −0.26; the “Hydrophobicity, Engleman et al.” value is on record as 0.6; the “Hydrophobicity, Janin” value is recorded as −0.1; the “Hydrophobicity, Kyrie and Doolittle” value is −0.8. In data set [2], the “SASA, Empirical” value was 143.0 Å^2; the “SASA, Theoretical” value is 155.0 Å^2; the “SASA, Miller et al. (1987)” value is 122.0 Å^2; the “SASA, Rose et al. (1985)” value was 129.8 Å^2.

For `N=C(N)NCCC[C@H](N)C(=O)O` [Arg, Arginine], in data set [1], the “Hydrophobicity, Eisenberg and Weiss” value is on record as −1.80; the “Hydrophobicity, Engleman et al.” value is given as −12.3; the “Hydrophobicity, Janin” value was −1.4; the “Hydrophobicity, Kyrie and Doolittle” value is listed as −4.5.

As for `NC(=O)C[C@H](N)C(=O)O` [Asn, Asparagine], in data set [1], the “Hydrophobicity, Eisenberg and Weiss” value was −0.64; the “Hydrophobicity, Engleman et al.” value was −4.8; the “Hydrophobicity, Janin” value is −0.5; the “Hydrophobicity, Kyrie and Doolittle” value is recorded as −3.5. In data set [2], the “SASA, Empirical” value is 187.0 Å^2; the “SASA, Theoretical” value is reported as 195.0 Å^2; the “SASA, Miller et al. (1987)” value is listed as 158.0 Å^2; the “SASA, Rose et al. (1985)” value is 165.5 Å^2.

For `N[C@@H](Cc1ccccc1)C(=O)O` [Phe, Phenylalanine], in data set [1], the “Hydrophobicity, Eisenberg and Weiss” value is 0.61; the “Hydrophobicity, Engleman et al.” value is on record as 3.7; the “Hydrophobicity, Janin” value is 0.5; the “Hydrophobicity, Kyrie and Doolittle” value was 2.8. In data set [2], the “SASA, Empirical” value is on record as 228.0 Å^2; the “SASA, Theoretical” value is recorded as 240.0 Å^2; the “SASA, Miller et al. (1987)” value is given as 218.0 Å^2; the “SASA, Rose et al. (1985)” value is on record as 222.8 Å^2.

As for `CSCC[C@H](N)C(=O)O` [Met, Methionine], in data set [1], the “Hydrophobicity, Eisenberg and Weiss” value was 0.26; the “Hydrophobicity, Engleman et al.” value is 3.4; the “Hydrophobicity, Janin” value is on record as 0.4; the “Hydrophobicity, Kyrie and Doolittle” value is on record as 1.9. Moreover, in data set [2], the “SASA, Empirical” value is reported as 203.0 Å^2; the “SASA, Theoretical” value is recorded as 224.0 Å^2; the “SASA, Miller et al. (1987)” value was 204.0 Å^2; the “SASA, Rose et al. (1985)” value is 203.4 Å^2.

In the case of `N[C@@H](CC(=O)O)C(=O)O` [Asp, Aspartic acid], in data set [1], the “Hydrophobicity, Eisenberg and Weiss” value is on record as −0.72; the “Hydrophobicity, Engleman et al.” value is listed as −9.2; the “Hydrophobicity, Janin” value is on record as −0.6; the “Hydrophobicity, Kyrie and Doolittle” value is −3.5. Besides, in data set [2], the “SASA, Empirical” value is reported as 187.0 Å^2; the “SASA, Theoretical” value is listed as 193.0 Å^2; the “SASA, Miller et al. (1987)” value is listed as 151.0 Å^2; the “SASA, Rose et al. (1985)” value is given as 158.7 Å^2.

For the compound `NCC(=O)O` [Gly, Glycine], in data set [2], the “SASA, Empirical” value is 97.0 Å^2; the “SASA, Theoretical” value is recorded as 104.0 Å^2; the “SASA, Miller et al. (1987)” value is 85.0 Å^2; the “SASA, Rose et al. (1985)” value is reported as 88.1 Å^2.
